Assay results reported in patent publication US20240246940A1, “HETEROARYL DERIVATIVE COMPOUND AND USE THEREOF” (VORONOI INC., priority 2021, published 2024).

What was measured:
Type in all cases: cell-based
[1] = tested on: HaCaT cells (EGFR expressing cell line); experiment: HaCaT cell proliferation inhibitory activity (CellTiter-Glo, 72 hours); conditions: Homo sapiens
Outline: (§1)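 Luminescent viability read-out, growth % vs control → GI50, n=3. Seeding: SK-BR-3/BT-474 5000 cells, 48 h pre-plating; N-87 5000, 24 h; HaCaT 3000, 24 h. Dose ranges: 0.2 nM–10 μM (SK-BR-3, BT-474; 3-fold), […]–5 μM (N-87; 5-fold), 0.8 nM–45 μM (HaCaT; 3-fold).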

[2] = tested on: N-87 cells (HER2 overexpressing cell line); experiment: N-87 cell proliferation inhibitory activity (CellTiter-Glo, 72 hours)
Experimental: To evaluate the cell proliferation inhibitory activity of the compound according to the present invention on HER2 and EGFR kinases, the following method was performed using HER2 overexpressing cell lines (SK-BR-3, BT-474, and N-87) and EGFR expressing cell line (HaCaT).
McCOY'S 5A supplemented with 10% FBS was used for SK-BR-3 cells, RPMI-1640 medium supplemented with 20% FBS was used for BT-474 cancer cells, and RPMI-1640 medium supplemented with 10% FBS was used for N-87 cancer cells. DMEM supplemented with 10% FBS was used for HaCaT cells.
For SK-BR-3 cells, 5000 cells were aliquoted into each well of a white clear bottom 96 well plate (Corning) 48 hours before treatment with the compounds of Examples. For BT-474 cells, 5000 cells were aliquoted into each well of a white clear bottom 96 well plate (Corning) 48 hours before treatment with the compounds of Examples. For N-87 cells, 5000 cells were aliquoted into each well of a white clear bottom 96 well plate (Corning) 24 hours before treatment with the compounds of Examples. For HaCaT cells, 3000 cells were aliquoted into each well of a white clear bottom 96 well plate (Corning) 24 hours before treatment with the compounds of Examples. For SK-BR-3 cells and BT-474 cells, the compounds of Examples were diluted in dimethyl sulfoxide (three-fold dilution, a total of 11 concentrations) and injected each in an amount of 1 μl to a final concentration of 0.2 nM to 10 μM. For N-87 cells, the compounds of Examples were diluted in dimethyl sulfoxide (five-fold dilution, a total of 11 concentrations) and injected each in an amount of 0.5 μl to a final concentration of […] to 5 μM. For HaCaT cells, the compounds of Examples were diluted in dimethyl sulfoxide (three-fold dilution, a total of 11 concentrations) and injected each in an amount of 0.5 μl to a final concentration of 0.8 nM to 45 μM. For the measurement of living cells, the cells were stored at room temperature for 10 minutes using CellTiter-Glo cell viability reagent (Promega) after a certain period of time (SK-BR-3: 120 hours, BT-474: 120 hours, N-87: 72 hours, and HaCaT: 72 hours) post treatment with the compounds of Examples, and the luminescence intensity thereof was measured using a reader (SynergyNeo, Biotek). Each test was repeated three times.
The result values were calculated as a cell growth rate (%) compared to those of the control group. A graph was created using the GraphPad Prism version 5.0 program, and GI50 values were calculated.

[3] = tested on: BT-474 cells (HER2 overexpressing cell line); experiment: BT-474 cell proliferation inhibitory activity (CellTiter-Glo, 120 hours); conditions: Homo sapiens
Outline: as §1

[4] = tested on: SK-BR-3 cells (HER2 overexpressing cell line); experiment: SK-BR-3 cell proliferation inhibitory activity (CellTiter-Glo, 120 hours); conditions: Homo sapiens
Outline: as §1

Row | SMILES | GI50 [3] | GI50 [4] | GI50 [1] | GI50 [2]
1 | C=CC(=O)N1CC(Oc2cc3c(Nc4cc(-c5cccc(C(F)(F)F)c5F)ccc4OC)ncnc3cc2OC)C1 [Example 17, 1-(3-((4-((2′-fluoro-4-methoxy-3′-(trifluoromethyl)-[1,1′-biphenyl]-3-yl)amino)-7-methoxy-quinazolin-6-yl)oxy)azetidin-1-yl)prop-2-en-1-one] | ≤ 0.15 µM | ≤ 0.15 µM | 0.15 to 1 µM | ≤ 0.15 µM
2 | C=CC(=O)N1CC(Oc2cc3c(Nc4cc(-c5cccc(C#N)c5F)ccc4OC)ncnc3cc2OC)C1 [Example 21, 3'-((6-((1-acryloylazetidin-3-yl)oxy)-7-methoxy-quinazolin-4-yl)amino)-2-fluoro-4′-methoxy-[1,1′-biphenyl]-3-carbonitrile] | ≤ 0.15 µM | ≤ 0.15 µM | ≤ 0.15 µM | ≤ 0.15 µM
3 | C=CC(=O)N1CC(Oc2cc3c(Nc4cc(-c5ccc(F)nc5)ccc4OC)ncnc3cc2OC)C1 [Example 22, 1-(3-( (4-((5-(6-fluoropyridin-3-yl)-2-methoxyphenyl)amino)-7-methoxy-quinazolin-6-yl)oxy)azetidin-1-yl)prop-2-en-1-one] | ≤ 0.15 µM | ≤ 0.15 µM | ≤ 0.15 µM | ≤ 0.15 µM
4 | C=CC(=O)N1CC(Oc2cc3c(Nc4cc(-c5ccccc5F)ccc4OC)ncnc3cc2OC)C1 [Example 24, 1-(3-((4-((2′-fluoro-4-methoxy-[1,1′-biphenyl]-3-yl)amino)-7-methoxy-quinazolin-6-yl)oxy)azetidin-1-yl)prop-2-en-1-one] | ≤ 0.15 µM | ≤ 0.15 µM | ≤ 0.15 µM | ≤ 0.15 µM
5 | C=CC(=O)N1CCC(F)(F)C(Oc2cc3c(Nc4cc(-c5ccco5)ccc4OC)ncnc3cc2OC)C1 (stereo not shown) [Example 113, 1-(4,4-difluoro-3-((4-((5-(furan-2-yl)-2-methoxyphenyl)amino)-7-methoxy-quinazolin-6-yl)oxy)piperidin-1-yl)prop-2-en-1-one] | ≤ 0.15 µM | ≤ 0.15 µM | ≤ 0.15 µM | ≤ 0.15 µM
6 | C=CC(=O)N1CCC(Oc2cc3c(Nc4cc(-c5ccco5)c(F)cc4OC)ncnc3cc2OC)C(F)C1 (stereo not shown) [Example 140, 1-(3-fluoro-4-((4-((4-fluoro-5-(furan-2-yl)-2-methoxyphenyl)amino)-7-methoxy-quinazolin-6-yl)oxy)piperidin-1-yl)prop-2-en-1-one] | ≤ 0.15 µM | ≤ 0.15 µM | ≤ 0.15 µM | ≤ 0.15 µM
7 | C=CC(=O)N1CCC(Oc2cc3c(Nc4cc(-c5ccc(F)cc5F)ccc4OC4CC4)ncnc3cc2OC)CC1 [Example 260, 1-(4-((4-((4-cyclopropoxy-2′,4′-difluoro-[1,1′-biphenyl]-3-yl)amino)-7-methoxyquinazolin-6-yl)oxy)piperidin-1-yl)prop-2-en-1-one] | ≤ 0.15 µM | ≤ 0.15 µM | ≤ 0.15 µM | ≤ 0.15 µM
8 | C=CC(=O)N1CCC(Nc2cc3c(Nc4cc(-c5ccco5)ccc4OC)ncnc3cc2OC2CCOC2)CC1 (stereo not shown) [Example 270, 1-(4-((4-((5-(furan-2-yl)-2-methoxyphenyl)amino)-7-((tetrahydrofuran-3-yl)oxy)quinazolin-6-yl)amino)piperidin-1-yl)prop-2-en-1-one] | ≤ 0.15 µM | ≤ 0.15 µM | ≤ 0.15 µM | ≤ 0.15 µM
9 | C=CC(=O)N1CCC(Nc2cc3c(Nc4cc(-c5ccco5)ccc4OC)ncnc3cc2OCCCN2CCOCC2)CC1 [Example 278, 1-(4-((4-((5-(furan-2-yl)-2-methoxyphenyl)amino)-7-(3-morpholinopropoxy)quinazolin-6-yl)amino)piperidin-1-yl)prop-2-en-1-one] | ≤ 0.15 µM | ≤ 0.15 µM | ≤ 0.15 µM | ≤ 0.15 µM
10 | C=CC(=O)N1CCC(Nc2cc3c(Nc4cc(-c5ccc(F)cc5F)ccc4OC)ncnc3cc2OC2CCOC2)CC1 (stereo not shown) [Example 286, 1-(4-((4-((2′,4′-difluoro-4-methoxy-[1,1′-biphenyl]-3-yl)amino)-7-((tetrahydrofuran-3-yl)oxy)quinazolin-6-yl)amino)piperidin-1-yl)prop-2-en-1-one] | ≤ 0.15 µM | ≤ 0.15 µM | ≤ 0.15 µM | ≤ 0.15 µM
11 | C=CC(=O)N1CCC(Nc2cc3c(Nc4cc(-c5ccco5)ccc4OC)ncnc3cc2OC)CC1 [Example 298, 1-(4-((4-((5-(furan-2-yl)-2-methoxyphenyl)amino)-7-methoxyquinazolin-6-yl)amino)piperidin-1-yl)prop-2-en-1-one] | ≤ 0.15 µM | ≤ 0.15 µM | ≤ 0.15 µM | ≤ 0.15 µM

Further lines, with some results ahead:

Row | GI50 [3] | GI50 [4] | SMILES | GI50 [1] | GI50 [2]
12 | ≤ 0.15 µM | ≤ 0.15 µM | C=CC(=O)N1CCC(Oc2cc3c(Nc4cc(-c5ccc(F)cc5)ccc4OC)ncnc3cc2OC)CC1 [Example 67, 1-(4-((4-((4′-fluoro-4-methoxy-[1,1′-biphenyl]-3-yl)amino)-7-methoxy-quinazolin-6-yl)oxy)piperidin-1-yl)prop-2-en-1-one] | 0.15 to 1 µM | ≤ 0.15 µM
13 | ≤ 0.15 µM | ≤ 0.15 µM | C=CC(=O)N1CCC(Oc2cc3c(Nc4cc(-c5ccsc5)ccc4OC)ncnc3cc2OC)CC1 [Example 79, 1-(4-((7-methoxy-4-((2-methoxy-5-(thiophen-3-yl)phenyl)amino)quinazolin-6-yl)oxy)piperidin-1-yl)prop-2-en-1-one] | ≤ 0.15 µM | ≤ 0.15 µM
14 | ≤ 0.15 µM | ≤ 0.15 µM | C=CC(=O)N1CCC(Oc2cc3c(Nc4cc(-c5cccc(C(F)(F)F)c5F)ccc4OC)ncnc3cc2OC)CC1 [Example 138, 1-(4-((4-((2′-fluoro-4-methoxy-3′-(trifluoromethyl)-[1,1′-biphenyl]-3-yl)amino)-7-methoxy-quinazolin-6-yl)oxy)piperidin-1-yl)prop-2-en-1-one] | 0.15 to 1 µM | ≤ 0.15 µM
15 | ≤ 0.15 µM | ≤ 0.15 µM | C=CC(=O)N1CCC(Oc2cc3c(Nc4cc(-c5cccc(C(F)(F)F)c5)ccc4OC)ncnc3cc2OC)CC1 [Example 139, 1-(4-((7-methoxy-4-((4-methoxy-3′-(trifluoromethyl)-[1,1′-biphenyl]-3-yl)amino)quinazolin-6-yl)oxy)piperidin-1-yl)prop-2-en-1-one] | 0.15 to 1 µM | ≤ 0.15 µM
16 | ≤ 0.15 µM | ≤ 0.15 µM | C=CC(=O)N1CCC(Oc2cc3c(Nc4cc(-c5ccc(F)c(C(F)(F)F)c5)ccc4OC)ncnc3cc2OC)CC1 [Example 142, 1-(4-((4-((4′-fluoro-4-methoxy-3′-(trifluoromethyl)-[1,1′-biphenyl]-3-yl)amino)-7-methoxy-quinazolin-6-yl)oxy)piperidin-1-yl)prop-2-en-1-one] | 0.15 to 1 µM | ≤ 0.15 µM
17 | ≤ 0.15 µM | ≤ 0.15 µM | C=CC(=O)N1CCC(Oc2cc3c(Nc4cc(-c5cccc(N(C)C)c5)ccc4OC)ncnc3cc2OC)CC1 [Example 151, 1-(4-((4-((3′-(dimethylamino)-4-methoxy-[1,1′-biphenyl]-3-yl)amino)-7-methoxy-quinazolin-6-yl)oxy)piperidin-1-yl)prop-2-en-1-one] | 0.15 to 1 µM | ≤ 0.15 µM
18 | ≤ 0.15 µM | ≤ 0.15 µM | C=CC(=O)N1CCC(Oc2cc3c(Nc4cc(-c5cc(N)c(F)cc5C)ccc4OC)ncnc3cc2OC)CC1 [Example 161, 1-(4-((4-((5′-amino-4′-fluoro-4-methoxy-2′-methyl-[1,1′-biphenyl]-3-yl)amino)-7-methoxy-quinazolin-6-yl)oxy)piperidin-1-yl)prop-2-en-1-one] | ≤ 0.15 µM | ≤ 0.15 µM
19 | 0.15 to 1 µM | ≤ 0.15 µM | C=CC(=O)N1CCC(Oc2cc3c(Nc4cc(-c5cccc(N)c5F)ccc4OC)ncnc3cc2OC)CC1 [Example 163, 1-(4-((4-((3′-amino-2′-fluoro-4-methoxy-[1,1′-biphenyl]-3-yl)amino)-7-methoxy-quinazolin-6-yl)oxy)piperidin-1-yl)prop-2-en-1-one] | 0.15 to 1 µM | ≤ 0.15 µM
